One data set has as its system U373 and OVCAR8 cells. The class given is cell-based, human.
For the next data set, the system named is EMT6 tumours. Kind of data set: EMT6 syngeneic breast cancer model, bioluminescent imaging and survival. Format: in vivo, Balb/c mice. As for the experimental part:
EMT6 syngeneic breast cancer models: Murine EMT6 breast cancer-derived cells (1×10^5 per mouse) were adapted for bioluminescent imaging and injected into the fat pad of the right lower breast in 6-8 week old Balb/c mice. Mice developed palpable tumours by 5-7 days, which grew rapidly. At 7 days post-tumour implants, mice were treated with Compound 2 (250 mg/kg, IP) or vehicle, twice daily, for six days. Maraba-DM (1×10^7 pfu per cell) or PBS was injected IV (tail vein) on day 10, 11, 13, 16, and 17. Animals were monitored daily for piloerection, weight loss, morbidity, hind leg paralysis and respiratory distress. Tumour images were captured twice weekly using a Xenogen 200 IVIS system (Caliper LS, USA), and total luminescent flux was analyzed on computerized software (Xenogen). Mice were euthanized when the total flux exceeded 1×10^7, which corresponded to a tumour burden of ˜500 mm^3 and occurred between 14-17 days in untreated animals.

A short description of data set [1]: Pharmacokinetic (PK) study, plasma LC-MS. Format: in vivo. Particulars: CD-1 nude mice. The procedure: (§1) Maximum tolerable dose (MTD) and pharmacokinetic (PK) studies in mice: For MTD studies, groups of three CD-1 nude mice (6-8 weeks old) were given a single intraperitoneal (IP) injection of Compound 2 (in log 2 increments, diluted in 10% Tween-80) ranging from […]-1000 mg/Kg. The animals were monitored twice daily for signs of distress, including weight loss, morbidity, and respiratory distress. For PK studies, groups of three CD-1 nude mice (6-8 weeks old) were given a single IP injection of Compound 2 (250 mg/Kg), and blood was taken from the saphenous vein at the indicated timepoints. The blood was centrifuged at 3,000 rpm for 10 min, and plasma collected and frozen (−80 deg C.). Plasma samples were analyzed for Compound 2 using LC-MS. To 10 μL plasma, 20 μL acetonitrile was added, vortexed briefly and centrifuged at 14,000 rpm for 10 min. The clear supernatant was transferred in to a vial for LC-MS analysis. Chromatographic separations were carried out on an Acquity UPLC BEH C18 (2.1×50 mm, […]) column using ACQUITY UPLC system. The mobile phase was 0.1% formic acid in water (solvent A) and 0.1% formic acid in acetonitrile (solvent B). A gradient starting at 95% solvent A going to 5% in 4.5 min, holding for 0.5 min, going back to 95% in 0.5 min and equilibrating the column for 1 min was employed. […]

The next data set concerns EMT6 breast cancer line. As to the kind of experiment: In vitro cytotoxicity assay with small molecule followed by Maraba virus infection. Particulars: 50 uM for 48 h prior to Maraba virus infection.
Data set [2] in a line: Maximum tolerable dose (MTD) study. The class given is in vivo. Particulars: single IP injection, CD-1 nude mice. The procedure: as §1
The test system of a further data set is OVCAR-4 xenograft. As to the kind of experiment: Ovarian xenograft model, bioluminescent imaging. Format: in vivo, CD-1 nude mice. As for the experimental part: Ovarian xenograft model: Human ovarian carcinoma-derived OVCAR-4 cells, adapted for bioluminescent imaging, were injected into 6-8 week old athymic CD-1 nude mice (IP injection, 5×10^6 cells per mouse). Untreated animals develop measurable abdominal tumours (assessed by IVIS imaging) by 4-7 days, become icteric by 3-4 months and must be euthanized shortly thereafter due to systemic disease as characterized by enlarged cancerous liver and spleen, pale kidneys, and cancerous lymph nodes on the abdominal mesentery. For efficacy experiments, Compound 2 (250 mg/kg; or vehicle (10% Tween-80)) was administered twice daily (IP injections), beginning on day 14 and ending on day 19. Maraba-DM (1×10^5 pfu per cell) or PBS was injected IV (tail vein) on day 16, 17, 19, 23, 25, 27. Animals were monitored daily for weight loss, morbidity, hind leg paralysis and respiratory distress. Tumour images were captured twice weekly with a Xenogen 200 IVIS system (Caliper LS, USA), and total luminescent flux was analyzed on computerized software (Xenogen).

Protocol for EMT6 breast cancer line: In vitro cytotoxicity assays with small molecules: Cells were seeded onto 96 well plates to a confluence of ˜50%. The following day, siRNA transfections were performed, or small-molecule IRE1α inhibition was initiated. For the small-molecules, DMSO was used as a vehicle with a [drug]=20-50 μM. Drug treatment occurred for either 4 h (“acute” treatment), or was re-applied at 24 h and left for 48 h total (“chronic” treatment). Following knockdown or chemical inhibition, the cells were infected at log dilutions with the indicated rhabdoviruses. After 48-72 h of infection (depending on the cell line), Resazurin sodium salt was added to a final concentration of 20 μg/ml. After a 6 h incubation the absorbance was read at a wavelength of 573 nm.

Regarding tunicamycin [reference compound], the eIF2alpha phosphorylation result with U373 and OVCAR8 cells is “inducing elF2alpha phosphorylation”.
A word on the half-life: it is the time in which the quantity being followed falls by half. Read a low half-life as fast loss. For the compound `COc1cc(-c2cccc(C(N)=O)c2)cc(C=O)c1O` [Compound 2, 3′-formyl-4′-hydroxy-5′-methoxy-[1,1′-biphenyl]-3-carboxamide], the tumour burden result was “significantly reduced tumour burden” with EMT6 tumours (combination with Maraba virus, 250 mg/Kg IP twice daily for 6 days) and “dramatically reduced tumour burden” in the data set on OVCAR-4 xenograft (combination with Maraba-DM, Compound 2 250 mg/kg IP twice daily). Further, the “tumour growth after drug treatment was stopped” value in the data set with EMT6 tumours (combination, virus dosing continued) is recorded as “tumour re-growth occurred even in the presence of continued virus dosing”. Also, the tumour growth entry is “neither drug nor virus had an appreciable effect on tumour growth” with EMT6 tumours (single agent) and “rapid re-growth occurred after an early period of tumour regression” in the data set with OVCAR-4 xenograft (single agent). The “efficacy (survival) with extended treatment” value with EMT6 tumours (treatment extended to more than 12 days in combination with virus) was “continued to increase efficacy”. Further, the bio-distribution entry in data set [1] was “efficient bio-distribution to the extravascular tissues”. Moreover, in data set [1] (mouse, plasma, intraperitoneal, 250 mg/Kg), the half-life was > 6 h. For the same compound, the “sensitization to oncolytic virus killing” value in the data set with EMT6 breast cancer line is listed as “significantly sensitized to oncolytic virus killing”. Besides, the tolerated single dose entry in data set [2] was “up to 1000 mg/Kg”. The “duration of reduced tumour burden” value in the data set with OVCAR-4 xenograft (combination with Maraba-DM) is recorded as > 30 days.

Values taken from patent US20100266618A1, “COMPOSITIONS AND METHODS FOR AUGMENTING ACTIVITY OF ONCOLYTIC VIRUSES” (priority 2009, published 2010).
